Data from PubChem BioAssay (NCI).
Values joined by “and” are separate entries in the source; they are usually repeats but may differ in a detail not shown here. Identical values can stand only once.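 Dose response: 5 concentrations. Exposure: 48 h. Format: 96-well plates. Endpoint: linear interpolation; highest concentration if not reached. At the GI50, growth is halved. TGI denotes the concentration required for complete inhibition of growth.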

What was measured:
Assay in all cases: inhibition of tumour cell growth, NCI panel, 48 h
[1] = tested on: OVCAR-3 ovarian
[2] = tested on: NCI-H23 lung
[3] = tested on: COLO 205 colon
[4] = tested on: UO-31 renal
[5] = tested on: A498 renal
[6] = tested on: RXF 393 renal
[7] = tested on: MALME-3M melanoma
[8] = tested on: KM12 colon
[9] = tested on: SNB-75 CNS
[10] = tested on: SF-539 CNS

Structure (SMILES) | TGI [1] | TGI [2] | TGI [3] | TGI [4] | TGI [5] | TGI [6] | TGI [7] | TGI [8] | GI50 [1] | GI50 [2] | GI50 [3] | GI50 [9] | TGI [9] | GI50 [4] | GI50 [10] | TGI [10] | GI50 [5] | GI50 [6] | GI50 [7] | GI50 [8]
CC(=O)c1sc(Nc2nnc(-c3ccc(-c4nnc(Nc5nc(C)c(C(C)=O)s5)o4)cc3)o2)nc1C | > 100 µM | > 100 µM | > 100 µM | > 10 µM | > 100 µM | > 100 µM | > 100 µM | > 10 µM | – | – | – | – | – | – | – | – | – | – | – | –
CC1CN(C(=O)CN2CCC(CCCCN(C)C)CC2)c2ccccc2NC1=O (stereo not drawn) | > 100 µM | > 100 µM | > 100 µM | > 100 µM | > 100 µM | – | > 100 µM | – | – | – | – | – | – | – | – | – | – | – | – | –
COc1cccc2c1C(=O)c1c(O)c3c(c(O)c1C2=O)C[C@](O)(C(=O)CO)C[C@H]3O[C@@H]1C[C@@H](NC(=O)CCCCCN(C)C2(c3ccc(F)cc3)CC3CCC2C3)[C@H](O)[C@@H](C)O1 (stereo partly drawn) | 4.27 µM | 10.7 µM | 1.65 µM | 12.5 µM | 12.4 µM | 10.5 µM | 16.9 µM | – | 1.41 µM | 3.49 µM | 0.728 µM | 3.28 µM | 11.2 µM | 6.1 µM | 3.67 µM | 10.3 µM | 5.92 µM | 2.71 µM | 7.85 µM | –
CCCC(=O)Nc1cc2c3c(c1)CCCN3CCC2 | > 10 µM | > 10 µM | > 10 µM | – | – | – | > 10 µM | > 10 µM | – | – | – | – | > 10 µM | – | – | > 10 µM | – | – | – | –
CCCc1nc(NC#N)nc(C(=O)Nc2ccccc2)c1CC | > 100 µM | > 100 µM | – | > 100 µM | > 100 µM | > 100 µM | > 100 µM | > 100 µM | – | – | – | – | > 100 µM | – | – | > 100 µM | – | – | – | –
COC(=O)C(Cc1nc2ccc(Cl)cc2[nH]c1=O)/C(=N\N)C(=O)Nc1cc(C)c(Cl)cc1S(=O)(=O)O (stereo not drawn) | > 100 µM | > 100 µM | > 100 µM | > 100 µM | > 100 µM | – | > 100 µM | > 100 µM | – | – | – | – | – | – | – | > 100 µM | – | – | – | –
CC12CP(=O)(c3ccccc3)CC1C2(Cl)Cl (stereo not drawn) | > 100 µM | > 100 µM | > 100 µM | – | – | > 100 µM | – | > 100 µM | – | – | – | – | > 100 µM | – | – | > 100 µM | – | – | – | –
N#Cc1c2ccccc2cn1-c1ccc(F)cc1 | 67.9 µM | 56.2 µM | 61.7 µM | 39.6 µM | – | – | 86.1 µM | 97.4 µM | – | – | – | – | 18.9 µM | – | – | > 100 µM | – | – | – | –
CN(C)C(n1cc2c(c1)-c1ccc(Cl)cc1C(c1ccccc1F)=NC2)n1cc2c(c1)-c1ccc(Cl)cc1C(c1ccccc1F)=NC2 | > 100 µM | 24.4 µM | > 100 µM | > 100 µM | > 100 µM | 66.6 µM | > 100 µM | – | – | – | – | – | 77.2 µM | – | – | > 100 µM | – | – | – | –
CCCNC(=S)NNC(=O)CSc1nc(-c2ccccc2)c(-c2ccccc2)[nH]1 | 79.7 µM | > 100 µM | > 100 µM | > 100 µM | > 100 µM | – | 95.4 µM | > 100 µM | – | – | – | – | > 100 µM | – | – | > 100 µM | – | – | – | –
O=C(CCc1n[nH]c(=S)o1)Nc1ccccc1C(F)(F)F | > 100 µM | > 100 µM | > 100 µM | > 100 µM | > 100 µM | – | > 100 µM | > 100 µM | – | – | – | – | > 100 µM | – | – | > 100 µM | – | – | – | –
C1=CC(N(c2ccccc2)C2C=CCCC2)CCC1 (stereo not drawn) | – | > 100 µM | > 100 µM | – | > 100 µM | > 100 µM | – | – | – | – | – | – | – | – | – | > 100 µM | – | – | – | –
O=C1/C(=C/c2cccc(Cl)c2Cl)N=C(c2ccccc2)N1C1CC1 | > 50 µM | 19.5 µM | > 50 µM | > 50 µM | – | > 50 µM | – | 34.4 µM | 22.1 µM | 9.35 µM | 15.1 µM | 6.06 µM | 15.9 µM | 28.5 µM | 10.3 µM | 22.3 µM | – | 23.9 µM | – | 11.9 µM
CCOc1ccc(NC(=O)CC#N)cc1 | > 100 µM | > 100 µM | > 100 µM | > 100 µM | > 100 µM | > 100 µM | > 100 µM | > 100 µM | – | – | – | – | > 100 µM | – | – | – | – | – | – | –
CCN1CCC(O)(c2ccc(OC)cc2)C(C(=O)c2ccc(OC)cc2)C1 (stereo not drawn) | 31.6 µM | 35.3 µM | 55.1 µM | 35.3 µM | – | – | – | 42.1 µM | – | – | – | – | 30.6 µM | – | – | 32.4 µM | – | – | – | –
CN(C)CC[PH+](c1ccccc1)c1ccccc1.CN(C)CC[PH+](c1ccccc1)c1ccccc1.[Cl-].[Pd+2] | > 100 µM | > 100 µM | > 100 µM | > 100 µM | > 100 µM | – | > 100 µM | > 100 µM | > 100 µM | > 100 µM | 80.2 µM | – | – | > 100 µM | > 100 µM | > 100 µM | > 100 µM | – | > 100 µM | > 100 µM
COc1cc(-c2cc(-c3cc4c([nH]c5ccccc54)c(-c4cc(OC)c(OC)c(OC)c4)n3)cc(-c3ccccc3)n2)cc(OC)c1OC | 17.3 µM | > 100 µM | 21.9 µM | 74.4 µM | 7.96 µM | 12.2 µM | 70.9 µM | > 100 µM | 3.9 µM | 5.52 µM | 4.11 µM | – | – | 3.02 µM | 4.97 µM | 44.4 µM | 1.64 µM | 2.7 µM | 6.3 µM | 4.09 µM
Oc1cccnc1[Se] | > 100 µM | > 100 µM | 35 µM | > 100 µM | – | > 100 µM | > 100 µM | > 100 µM | – | – | – | – | > 100 µM | – | – | > 100 µM | – | – | – | –
COc1ccc(C(=O)/C=C/c2cc(-c3cc(OC)c(OC)c(OC)c3)n[nH]2)cc1OC | 3.17 µM | 5.24 µM | 3.21 µM | 2.57 µM | 2.98 µM | 2.66 µM | 3.68 µM | 2.41 µM | 1.68 µM | 2.15 µM | 1.74 µM | – | – | 1.28 µM | 1.27 µM | 2.6 µM | 1.48 µM | 1.35 µM | 1.99 µM | 1.07 µM
COc1cc(NCc2ccc3nc(N)nc(N)c3c2C)cc(OC)c1OC (tested in a mixture with another compound) | 77.8 µM | – | 45.1 µM | – | 49.5 µM | 27.5 µM | 30 µM and 49.4 µM | 46.6 µM | – | – | – | – | 52.7 µM | – | – | – | – | – | – | –
